Measurements from patent US7582803B2 (Amgen Inc., priority 2005, dated 2009).

Each molecule was assayed against T1, human GPR40 (Homo sapiens, UniProt O14842) (assay: Cell-based aequorin assay). Details: CHO cells stably transfected with GPR40 and aequorin; 0.01% HSA; aequorin luminescence; read-out: Relative EC50.
T1 construct: expressed in transfected cells; host or cells: CHO cells
Protocol: Cell-based aequorin assays were employed to characterize the modulatory activity of compounds on the GPR40 signaling pathway. In an exemplary assay, CHO cells were stably transfected with both GPR40 and Aequorin (Euroscreen). Cells were detached from the tissue culture dish with 2 mL of trypsin (0.25% (w/v)). Trypsinization was halted with 28 mL of Hanks Buffered Salt Solution containing 20 mM Hepes (H/HBSS) and 0.01% fatty acid-free human serum albumin (HSA). Coelantrazine is added to 1 ug/mL, and the cells were incubated for 2 hours at room temperature. Compounds were dissolved in DMSO for preparation of 10 mM stock solutions. Compounds were diluted in H/HBSS containing 0.01% HSA. Serial dilutions of the test compounds were prepared to determine dose response.
Aequorin luminescence measurements were made using an EG&G Berthold 96-well luminometer, and the response was measured over a 20 second interval after cells and compounds were mixed. The maximum relative light units was plotted to determine dose response. The EC50 (effective concentration to reach 50% maximal response) was determined from the dose response plot.
Table 1 presents representative data (EC50 values) obtained for exemplary compounds of the invention for the relative activation of human GPR40. […]

T1 sequence (O14842 whole entry): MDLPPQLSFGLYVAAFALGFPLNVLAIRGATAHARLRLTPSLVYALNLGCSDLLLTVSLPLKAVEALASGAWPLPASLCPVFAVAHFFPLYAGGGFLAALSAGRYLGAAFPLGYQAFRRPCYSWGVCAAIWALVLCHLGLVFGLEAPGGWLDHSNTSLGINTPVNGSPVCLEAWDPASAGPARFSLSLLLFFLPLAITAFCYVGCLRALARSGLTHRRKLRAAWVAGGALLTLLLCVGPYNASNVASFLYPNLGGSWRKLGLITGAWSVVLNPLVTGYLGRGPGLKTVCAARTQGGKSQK

| Structure (SMILES) | EC50 |
| --- | --- |
| O=C(O)CC(c1ccc(OC2CCc3cc(Br)ccc32)cc1)n1cccn1 (centres unmarked) [Example 47, 3-(4-(5-Bromo-2,3-dihydro-1H-inden-1-yloxy)phenyl)-3-(1H-pyrazol-1-yl)propanoic acid] | 100 to 1000 nM |
| CC#C[C@@H](CC(=O)O)c1ccc(OC2CCc3cc(-c4cccc(OC(F)(F)F)c4)ccc32)cc1 (stereo partly drawn) [Example 50, (3S)-3-(4-(5-(3-(Trifluoromethoxy)phenyl)-2,3-dihydro-1H-inden-1-yloxy)phenyl)hex-4-ynoic acid] | 10 to 100 nM |
| Cc1cnc(C(CC(=O)O)c2ccc(OC3Cc4ccccc4C3)cc2)o1 (centres unmarked) [Example 51, 3-(4-(2,3-Dihydro-1H-inden-2-yloxy)phenyl)-3-(5-methyloxazol-2-yl)propanoic acid] | 100 to 1000 nM |
| CC#C[C@@H](CC(=O)O)c1ccc(OC2CCc3cc(C#N)ccc32)cc1 (stereo partly drawn) [Example 54, (3S)-3-(4-(5-Cyano-2,3-dihydro-1H-inden-1-yloxy)phenyl)hex-4-ynoic acid] | 10 to 100 nM |
| CC#C[C@@H](CC(=O)O)c1ccc(OC2CCc3cc(-c4cc(OC)ccc4F)ccc32)cc1 (stereo partly drawn) [Example 55, (3S)-3-(4-(5-(2-Fluoro-5-methoxyphenyl)-2,3-dihydro-1H-inden-1-yloxy)phenyl)hex-4-ynoic acid] | 100 to 1000 nM |
| COc1ccc(F)c(-c2ccc3c(c2)CCC3Oc2ccc([C@H](C=C(C)C)CC(=O)O)cc2)c1 (some centres unmarked) [Example 56] | 1000 to 10000 nM |
| COc1ccc(F)c(-c2ccc3c(c2)CCC3Oc2ccc([C@@H](C=C(C)C)CC(=O)O)cc2)c1 (some centres unmarked) [Example 57] | 100 to 1000 nM |
| Cn1ccnc1[C@@H](CC(=O)O)c1ccc(OC2CCc3cc(Cl)ccc32)cc1 (stereo partly drawn) [Example 58, (3S)-3-(4-(5-Chloro-2,3-dihydro-1H-inden-1-yloxy)phenyl)-3-(1-methyl-1H-imidazol-2-yl)propanoic acid] | 1000 to 10000 nM |
| CC#C[C@H](CC(=O)O)c1ccc(OC2CCc3cc(-c4cccc(OCC)c4)ccc32)cc1 (stereo partly drawn) [Example 59, (3R)-3-(4-(5-(3-Ethoxyphenyl)-2,3-dihydro-1H-inden-1-yloxy)phenyl)hex-4-ynoic acid] | > 10000 nM |
| CC#C[C@H](CC(=O)O)c1ccc(OC2CCc3cc(-c4ccc5c(c4)OCO5)ccc32)cc1 (stereo partly drawn) [Example 60, (3R)-3-(4-(5-(Benzo[d][1,3]dioxol-5-yl)-2,3-dihydro-1H-inden-1-yloxy)phenyl)hex-4-ynoic acid] | > 10000 nM |
| CC#C[C@H](CC(=O)O)c1ccc(OC2CCc3cc(-c4cccc(OC)c4OC)ccc32)cc1 (stereo partly drawn) [Example 61, (3R)-3-(4-(5-(2,3-Dimethoxyphenyl)-2,3-dihydro-1H-inden-1-yloxy)phenyl)hex-4-ynoic acid] | > 10000 nM |
| CC#C[C@H](CC(=O)O)c1ccc(OC2CCc3cc(-c4cccc(OC)c4)ccc32)cc1 (stereo partly drawn) [Example 62, (3R)-3-(4-(5-(3-Methoxyphenyl)-2,3-dihydro-1H-inden-1-yloxy)phenyl)hex-4-ynoic acid] | > 10000 nM |
| CC#C[C@H](CC(=O)O)c1ccc(OC2CCc3cc(-c4cccc(OC(F)(F)F)c4)ccc32)cc1 (stereo partly drawn) [Example 63, (3R)-3-(4-(5-(3-(trifluoromethoxy)phenyl)-2,3-dihydro-1H-inden-1-yloxy)phenyl)hex-4-ynoic acid] | > 10000 nM |
| CC#C[C@H](CC(=O)O)c1ccc(OC2CCc3cc(-c4c(C)cc(C)cc4C)ccc32)cc1 (stereo partly drawn) [Example 64, (3R)-3-(4-(5-Mesityl-2,3-dihydro-1H-inden-1-yloxy)phenyl)hex-4-ynoic acid] | > 10000 nM |
| CC#C[C@H](CC(=O)O)c1ccc(OC2CCc3cc(-c4ccccc4OCC)ccc32)cc1 (stereo partly drawn) [Example 65, (3R)-3-(4-(5-(2-Ethoxyphenyl)-2,3-dihydro-1H-inden-1-yloxy)phenyl)hex-4-ynoic acid] | > 10000 nM |
| CC#C[C@H](CC(=O)O)c1ccc(OC2CCc3cc(-c4cc(OCC)ccc4F)ccc32)cc1 (stereo partly drawn) [Example 66, (3R)-3-(4-(5-(5-Ethoxy-2-fluorophenyl)-2,3-dihydro-1H-inden-1-yloxy)phenyl)hex-4-ynoic acid] | > 10000 nM |
| CC#C[C@H](CC(=O)O)c1ccc(OC2CCc3cc(-c4cccc(OC)c4F)ccc32)cc1 (stereo partly drawn) [Example 67, (3R)-3-(4-(5-(2-Fluoro-3-methoxyphenyl)-2,3-dihydro-1H-inden-1-yloxy)phenyl)hex-4-ynoic acid] | > 10000 nM |
| CC#C[C@H](CC(=O)O)c1ccc(OCC2CCCCC2)cc1 [Example 68, (R)-3-(4-(Cyclohexylmethoxy)phenyl)hex-4-ynoic acid] | 1000 to 10000 nM |

| Structure (SMILES) | EC50 |
| --- | --- |
| CC#C[C@@H](CC(=O)O)c1ccc(OCCC2CCCCC2)cc1 [Example 69, (S)-3-(4-(2-cyclohexylethoxy)phenyl)hex-4-ynoic acid] | 100 to 1000 nM |
| CC#C[C@@H](CC(=O)O)c1ccc(OCCC2CCCC2)cc1 [Example 70, (S)-3-(4-(2-cyclopentylethoxy)phenyl)hex-4-ynoic acid] | 100 to 1000 nM |
| Cn1ccnc1[C@@H](CC(=O)O)c1ccc(OCc2ccc3c(c2)C(C)(C)CCC3(C)C)cc1 [Example 71, (S)-3-(1-Methyl-1H-imidazol-2-yl)-3-[4-(5,5,8,8-tetramethyl-5,6,7,8-tetrahydro-naphthalen-2-ylmethoxy)-phenyl]-propionic acid] | 100 to 1000 nM |
| Cn1ncnc1[C@@H](CC(=O)O)c1ccc(OCc2ccc3c(c2)C(C)(C)CCC3(C)C)cc1 [Example 72, (S)-3-(2-Methyl-2H-[1,2,4]triazol-3-yl)-3-[4-(5,5,8,8-tetramethyl-5,6,7,8-tetrahydro-naphthalen-2-ylmethoxy)-phenyl]-propionic acid] | 100 to 1000 nM |
| Cn1nncc1[C@@H](CC(=O)O)c1ccc(OCc2ccc3c(c2)C(C)(C)CCC3(C)C)cc1 [Example 73, (S)-3-(3-methyl-3H-1,2,3-triazol-4-yl)-3-(4-((5,5,8,8-tetramethyl-5,6,7,8-tetrahydronaphthalen-2-yl)methoxy)phenyl)propanoic acid] | 10 to 100 nM |
| Cn1cncc1[C@@H](CC(=O)O)c1ccc(OCc2ccc3c(c2)C(C)(C)CCC3(C)C)cc1 [Example 74, (S)-3-(1-methyl-1H-imidazol-5-yl)-3-(4-((5,5,8,8-tetramethyl-5,6,7,8-tetrahydronaphthalen-2-yl)methoxy)phenyl)propanoic acid] | 100 to 1000 nM |
| CC1(C)CCC(C)(C)c2cc(COc3ccc([C@H](CC(=O)O)c4cnco4)cc3)ccc21 [Example 75, (S)-3-(Oxazol-5-yl)-3-(4-((5,5,8,8-tetramethyl-5,6,7,8-tetrahydronaphthalen-2-yl)methoxy)phenyl)propanoic acid] | 100 to 1000 nM |
| CC1(C)CCC(C)(C)c2cc(COc3ccc([C@H](CC(=O)O)c4ccon4)cc3)ccc21 [Example 76, (S)-3-(Isoxazol-3-yl)-3-(4-((5,5,8,8-tetramethyl-5,6,7,8-tetrahydronaphthalen-2-yl)methoxy)phenyl)propanoic acid] | 10 to 100 nM |
| CC1(C)CCC(C)(C)c2cc(COc3ccc([C@@H](CC(=O)O)c4ccon4)cc3)ccc21 [Example 77, (R)-3-(Isoxazol-3-yl)-3-(4-((5,5,8,8-tetramethyl-5,6,7,8-tetrahydronaphthalen-2-yl)methoxy)phenyl)propanoic acid] | 1000 to 10000 nM |
| Cn1ccnc1[C@@H](CC(=O)O)c1ccc(OCc2ccc3c(c2)CCCC3)cc1 [Example 80, (S)-3-(i-Methyl-1H-imidazol-2-yl)-3-[4-(5,6,7,8-tetrahydro-naphthalen-2-ylmethoxy)-phenyl]-propionic acid] | 100 to 1000 nM |
| Cn1nnnc1[C@@H](CC(=O)O)c1ccc(OCc2ccc3c(c2)C(C)(C)CCC3(C)C)cc1 [Example 81, (S)-3-(1-Methyl-1H-tetrazol-5-yl)-3-[4-(5,5,8,8-tetramethyl-5,6,7,8-tetrahydro-naphthalen-2-ylmethoxy)-phenyl]-propionic acid] | 10 to 100 nM |
| CC1(C)CCC(C)(C)c2cc(COc3ccc([C@H](CC(=O)O)c4ncco4)cc3)ccc21 [Example 82, (S)-3-Oxazol-2-yl-3-[4-(5,5,8,8-tetramethyl-5,6,7,8-tetrahydro-naphthalen-2-ylmethoxy)-phenyl]-propionic acid] | 10 to 100 nM |
| Cn1cnnc1[C@H](CC(=O)O)c1ccc(OCc2ccc3c(c2)C(C)(C)CCC3(C)C)cc1 [Example 83] | > 10000 nM |
| Cn1cnnc1[C@@H](CC(=O)O)c1ccc(OCc2ccc3c(c2)C(C)(C)CCC3(C)C)cc1 [Example 84] | 100 to 1000 nM |
| CC1(C)CCC(C)(C)c2cc(COc3ccc(C(CC(=O)O)C4=NOCC4)cc3)ccc21 (centres unmarked) [Example 85, 3-(4,5-Dihydroisoxazol-3-yl)-3-(4-((5,5,8,8-tetramethyl-5,6,7,8-tetrahydronaphthalen-2-yl)methoxy)phenyl)propanoic acid] | 100 to 1000 nM |
| Cn1ccnc1[C@@H](CC(=O)O)c1ccc(OCc2ccc3c(c2)C(C)(C)CCC3)cc1 [Example 86, (S)-3-(4-((8,8-Dimethyl-5,6,7,8-tetrahydronaphthalen-2-yl)methoxy)phenyl)-3-(1-methyl-1H-imidazol-2-yl)propanoic acid] | 100 to 1000 nM |
| C[C@H](Oc1ccc([C@H](CC(=O)O)c2nccn2C)cc1)c1ccc2c(c1)C(C)(C)CCC2(C)C [Example 87, (3S)-3-(1-Methyl-1H-imidazol-2-yl)-3-(4-(1-(5,5,8,8-tetramethyl-5,6,7,8-tetrahydronaphthalen-2-yl)ethoxy)phenyl)propanoic acid] | > 10000 nM |
